One experiment has as its system H2228. Kind of experiment: CCK-8 proliferation, NCI-H2228 (H2228). The class given is cell-based. The settings on record: Homo sapiens, NCI-H2228; CCK-8; 96 hours; read-out: Inhibitory activity (IC50) on tumor cell proliferation, H2228. A digest of the protocol:
(§1)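 Tumor cells were cultured at 37°C with 5% CO2, seeded, and after 24h treated with compounds at 10 concentrations starting at 10µM (5-fold serial dilutions).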

The subject of another experiment is PC-9. As to the kind of experiment: CCK-8 proliferation, PC-9. Type of experiment: cell-based, Human. The settings on record: Homo sapiens, PC-9; CCK-8; 96 hours; read-out: Inhibitory activity (IC50) on tumor cell proliferation, PC-9. On the procedure: (§2) The tumor cells used herein were cultured in a cell culture medium listed in table A1 at 37°C in an incubator with 5% CO2. Prior to experimentation, all cell lines used were correctly identified by STR profiling, and tested negative for mycoplasma contamination using a mycoplasma detection kit through routine screenings. Table A1. Tumor cells and cell culture medium used in the present disclosure
(§3) IC50 values of the compounds of the present disclosure (including the compounds in Table 1, and compounds of examples) were measured using the Meilun Cell Counting Kit-8 kit from Dalian Meilun Biotech Co., Ltd. Assay details are as follows: tumor cells were seeded in a 96-well plate at a density listed in Table A2. After 24h, 100 µL of the inoculated cells were treated with 0.5µL of the compounds of the present disclosure (including the compounds in Tables 1 and 2, and compounds of examples) at 10 different successively decreasing concentrations (starting at the highest concentration of 10µM; 5-fold serial dilutions). After the cells were treated with the compounds of the present disclosure for a period of time, the cell viability detection reagent was added to the culture medium for cell viability assessment according to the instructions provided with the CCK-8 kit. […] The growth inhibition of the compounds of the present disclosure on cells was plotted by Prism Graphpad software, and the IC50 values of the compounds of the present disclosure were calculated therefrom. […] Seeding protocol and treatment time for tumor cells

Another experiment concerns H1975. As to the kind of experiment: CCK-8 proliferation, NCI-H1975 (H1975). Type of experiment: cell-based, Human. Particulars: Homo sapiens, NCI-H1975; CCK-8; 96 hours; read-out: Inhibitory activity (IC50) on tumor cell proliferation, H1975. A digest of the protocol: as §1
For a further experiment, the system named is MV-4-11. As to the kind of experiment: CCK-8 proliferation, MV-4-11. The class given is cell-based, Human. The settings on record: Homo sapiens, MV4-11; CCK-8; 72 or 96 hours; read-out: Inhibitory activity (IC50) on tumor cell proliferation, MV-4-11. On the procedure:
as §2, §3

The test system of the next experiment is CCRF-CEM. As to the kind of experiment: CCK-8 proliferation, CCRF-CEM. Type of experiment: cell-based, Human. Particulars: Homo sapiens, CCRF-CEM; CCK-8; 96 hours; read-out: Inhibitory activity (IC50) on tumor cell proliferation, CCRF-CEM. As to the method: as §2, §3

Each structure is given as a SMILES string.

With `NC(=O)c1ncc(N2CCCCC2)nc1Nc1ccc(C2CCN(Cc3ccc(C4CCC(=O)NC4=O)c(F)c3)CC2)cc1` (stereo not drawn) [GT-04786, 3-((4-(1-(4-(2,6-dioxopiperidin-3-yl)-3-fluorobenzyl)piperidin-4-yl)phenyl)amino)-5-(piperidin-1-yl)pyrazine-2-carboxamide], the IC50 in the experiment on H2228 lay within 100 to 500 nM; in the experiment with PC-9 it was 500 to 1000 nM; with H1975, 500 to 1000 nM.
As to `NC(=O)c1ncc(N2CCCCC2)nc1Nc1ccc(C2CCN(Cc3ccc(N4CCC(=O)NC4=O)c(F)c3)CC2)cc1` [GT-04788, 3-((4-(1-(4-(2,4-dioxotetrahydropyrimidin-1(2H)-yl)-3-fluorobenzyl)piperidin-4-yl)phenyl)amino)-5-(piperidin-1-yl)pyrazine-2-carboxamide], the IC50 lay within 100 to 500 nM with H2228, 100 to 500 nM in the experiment on PC-9 and 500 to 1000 nM in the experiment with H1975.
As for `NC(=O)c1ncc(N2CCCCC2)nc1Nc1ccc(C2CCN(Cc3ccc(N4CCC(=O)NC4=O)cc3)CC2)cc1` [GT-04789, 3-((4-(1-(4-(2,4-dioxotetrahydropyrimidin-1(2H)-yl)benzyl)piperidin-4-yl)phenyl)amino)-5-(piperidin-1-yl)pyrazine-2-carboxamide], the IC50 lay within 100 to 500 nM with H2228, 100 to 500 nM with PC-9 and 500 to 1000 nM in the experiment on H1975.
For the compound `CN1CCN([C@@H]2CCCN(c3cnc(C(N)=O)c(Nc4ccc(C5CCN(Cc6ccc(C7CCC(=O)NC7=O)cc6)CC5)cc4)n3)C2)C1=O` (stereo partly drawn) [GT-04798, 3-((4-(1-(4-(2,6-dioxopiperidin-3-yl)benzyl)piperidin-4-yl)phenyl)amino)-5-((R)-3-(3-methyl-2-oxoimidazolidin-1-yl)piperidin-1-yl)pyrazine-2-carboxamide], the IC50 in the experiment with H2228 was in the range of 500 to 1000 nM; in the experiment on PC-9, 100 to 500 nM; in the experiment on H1975 it was 500 to 1000 nM.
`CN1CCN([C@@H]2CCCN(c3cnc(C(N)=O)c(Nc4ccc(C5CCN(Cc6ccc(C7CCC(=O)NC7=O)c(F)c6)CC5)cc4)n3)C2)C1=O` (stereo partly drawn) [GT-04799, 3-((4-(1-(4-(2,6-dioxopiperidin-3-yl)-3-fluorobenzyl)piperidin-4-yl)phenyl)amino)-5-((R)-3-(3-methyl-2-oxoimidazolidin-1-yl)piperidin-1-yl)pyrazine-2-carboxamide]: the IC50 with H2228 and with PC-9 was 500 to 1000 nM each time.
As for `CN1CCN([C@@H]2CCCN(c3cnc(C(N)=O)c(Nc4ccc(C5CCN(Cc6ccc(N7CCC(=O)NC7=O)c(F)c6)CC5)cc4)n3)C2)C1=O` [GT-04801, (R)-3-((4-(1-(4-(2,4-dioxotetrahydropyrimidin-1(2H)-yl)-3-fluorobenzyl)piperidin-4-yl)phenyl)amino)-5-(3-(3-methyl-2-oxoimidazolidin-1-yl)piperidin-1-yl)pyrazine-2-carboxamide], the results for the IC50 in the experiment with H2228, in the experiment on PC-9 and in the experiment with H1975 were 100 to 500 nM, 100 to 500 nM and 500 to 1000 nM, respectively.
As for `Nc1nc(Nc2ccc(S(=O)(=O)N3CCN(Cc4ccc(N5CCC(=O)NC5=O)cc4)CC3)cc2)nn1C(=O)c1c(F)cccc1F` [GT-06751, 1-(4-((4-((4-((5-amino-1-(2,6-difluorobenzoyl)-1H-1,2,4-triazol-3-yl)amino)phenyl)sulfonyl)piperazin-1-yl)methyl)phenyl)dihydropyrimidine-2,4(1H,3H)-dione], the IC50 with MV-4-11 and in the experiment with CCRF-CEM was 500 to 1000 nM each time.
`Nc1nc(Nc2ccc(S(=O)(=O)N3CCN(Cc4ccc(N5CCC(=O)NC5=O)nc4)CC3)cc2)nn1C(=O)c1c(F)cccc1F` [GT-06754, 1-(5-((4-((4-((5-amino-1-(2,6-difluorobenzoyl)-1H-1,2,4-triazol-3-yl)amino)phenyl)sulfonyl)piperazin-1-yl)methyl)pyridin-2-yl)dihydropyrimidine-2,4(1H,3H)-dione]: the IC50 in the experiment with MV-4-11 and in the experiment with CCRF-CEM was 500 to 1000 nM each time.

Values taken from patent publication EP4678638A1, “NEW E3 UBIQUITIN LIGASE LIGAND, PROTEIN DEGRADATION AGENT AND USE THEREOF” (priority 2023, dated 2024).
